Data reported in paper PMC12655637, “Design, Synthesis, and Mechanistic Study of Novel Ciprofloxacin/Thiazole Chalcone Hybrids as Potential Anticancer Agents” (Pharmaceuticals, 2025).

What was measured:
tubulin polymerization = test system: tubulin polymerization; set-up: method as in PMID 40308265; settings: read-out: IC50 inhibition of tubulin polymerization; cited from earlier work
[1] = In vitro cytotoxicity against normal cell line WI 38; format: cell-based; settings: human, WI-38 normal cell line; ± SEM
Source text: Detailed results of cytotoxicity of compounds 4b and 4d against normal cell
Blank CC Sample No. 4b/WI38 sample no. 4d/WI38
conc. viability conc. viability

[2] = test system: non-small-cell lung cancer A459; set-up: method as in PMID 27555286; settings: A459 ref 30; cited from earlier work
[3] = test system: human melanoma LOX IMVI cancer cell line; set-up: method as in PMID 39406816; settings: LOX IMVI ref 33; cited from earlier work
[4] = test system: renal cancer cell line UO-31; set-up: method as in PMID 29547830; settings: UO-31 ref 31; cited from earlier work
MDA-MB-468 = test system: MDA-MB-468; set-up: method as in PMID 39338317; settings: MDA-MB-468 ref 14; cited from earlier work
CCRF-CEM = test system: CCRF-CEM; set-up: method as in PMID 39338317; settings: CCRF-CEM ref 14; cited from earlier work
RPMI-8226 = test system: RPMI-8226; set-up: method as in PMID 39338317; settings: RPMI-8226 ref 14; cited from earlier work
OVCAR-3 = test system: OVCAR-3; set-up: method as in PMID 39338317; settings: OVCAR-3 ref 14; cited from earlier work
leukemia subpanel = test system: leukemia subpanel; set-up: method as in PMID 24090914; settings: leukemia subpanel ref 26; cited from earlier work
MCF-7 = test system: MCF-7; set-up: method as in PMID 40308265; settings: MCF-7 ref 32; cited from earlier work
PC-3 = test system: PC-3; set-up: method as in PMID 40308265; settings: PC-3 ref 32; cited from earlier work
HCT-116 = test system: HCT-116; set-up: method as in PMID 40308265; settings: HCT-116 ref 32; cited from earlier work
MDAMB-231 = test system: MDAMB-231; set-up: method as in PMID 40308265; settings: MDAMB-231 ref 32; cited from earlier work

In the case of COc1ccc(/C=C\c2cc(OC)c(OC)c(OC)c2)cc1O [CA-4], the IC50 (tubulin polymerization) is listed as 8.33 µM.
COc1cccc2c1C(=O)c1c(O)c3c(c(O)c1C2=O)C[C@@](O)(C(=O)CO)C[C@@H]3O[C@H]1C[C@H](N)[C@H](O)[C@H](C)O1 [Doxorubicin, doxorubicin, reference compound] gave an IC50 [1] of 19.8 ± 0.68 µM.
In the case of O=C(CN1CCN(c2cc3c(cc2F)c(=O)c(C(=O)O)cn3C2CC2)CC1)Nc1ccc(Cl)cc1 [III], the IC50 [2] is listed as 14.8 µM.
For O=C(O)c1cn(C2CC2)c2cc(N3CCN(C(=O)CCCN4C(=O)S/C(=C\c5ccc(F)cc5)C4=O)CC3)c(F)cc2c1=O [IIX], the IC50 [3] is given as 25.4 µM.
For O=C(CN1CCN(c2cc3c(cc2F)c(=O)c(C(=O)O)cn3C2CC2)CC1)N/N=C/c1ccccc1O [IV], the IC50 [4] is listed as 0.75 µM.
For O=C(/C=C/c1ccc(Cl)cc1)c1c[nH]c(=S)s1 [VII], the IC50 (MDA-MB-468) is given as 2.51 µM, the IC50 (CCRF-CEM) is given as 2.88 µM and the IC50 (RPMI-8226) is given as 2.4 µM. The IC50 (OVCAR-3) was 2.82 µM.
For COc1cc(/C=C/C(=O)c2ccc(NC(=O)N3CCN(c4cc5c(cc4F)c(=O)c(C(=O)O)cn5C4CC4)CC3)cc2)cc(OC)c1OC [VI], the Selectivity ratio (leukemia subpanel) is given as 6.71.
For COc1cc(/C=C/C(=O)c2sc(SCC(=O)Nc3nc(-c4ccccc4)cs3)nc2C)cc(OC)c1OC [V], the IC50 (MCF-7) is given as 4 µM, the IC50 (PC-3) is given as 7 µM and the IC50 (HCT-116) is given as 8 µM. The IC50 (tubulin polymerization) was 2.69 µM and the IC50 (MDAMB-231) was 6 µM.
